From PubChem BioAssay AID330 (DTP/NCI, 2004)
Several values for one entry are separate records, joined by “and”; a condition that tells them apart may be missing. Equal values may be shown once. Toxic doses and inconclusive results are not listed. The calls were made as follows: active = survival T/C of 150% or more; inactive = T/C below 125% in these data.

Test system: P388 leukemia ip, CD2F1 mice, survival T/C
Assay: NCI In Vivo Anticancer Drug Screen. Data for tumor model P388 Leukemia (intraperitoneal) in CD2F1 (CDF1) mice
Details: endpoint: median survival time, higher = longer survival
In short: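 Mice carrying the transplanted tumor received test compound or vehicle. Survival was recorded in each group, and the value is the treated-group measurement divided by that of the vehicle-treated control group.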

[1] = dose: 50.0 mg/kg/injection, schedule: Q01DX009 (ip), vehicle: saline with Tween-80
[2] = dose: 100.0 mg/kg/injection, schedule: Q01DX009 (ip), vehicle: saline with Tween-80
[3] = dose: 50.0 mg/kg/injection, schedule: Q01DX009 (ip), vehicle: saline
[4] = dose: 50.0 mg/kg/injection, schedule: Q01DX009 (ip), vehicle: Klucel (hydroxypropylcellulose) (HPC)
[5] = dose: 200.0 mg/kg/injection, schedule: Q01DX009 (ip), vehicle: Klucel (hydroxypropylcellulose) (HPC)
[6] = dose: 50.0 mg/kg/injection, schedule: Q01DX005 (ip), vehicle: saline
[7] = dose: 100.0 mg/kg/injection, schedule: Q01DX005 (ip), vehicle: saline

Measured: T/C

O=S(=O)(CCCl)c1ccccc1
inactive: dose: 100.0 mg/kg/injection, schedule: Q04DX003 (ip), vehicle: Klucel (hydroxypropylcellulose) (HPC) 104 % of control | dose: 200.0 mg/kg/injection, schedule: Q04DX003 (ip), vehicle: Klucel (hydroxypropylcellulose) (HPC) 106 % of control | dose: 400.0 mg/kg/injection, schedule: Q04DX003 (ip), vehicle: Klucel (hydroxypropylcellulose) (HPC) 97 % of control

CSCc1cccc(Cl)c1N
inactive: dose: 25.0 mg/kg/injection, schedule: Q01DX009 (ip), vehicle: saline with Tween-80 102 % of control | [1] 106 % of control | [2] 106 % of control

CCOP(=O)(Cc1ccc(-c2nc3ccccc3o2)cc1)OCC
inactive: [3] 103 % of control | dose: 100.0 mg/kg/injection, schedule: Q01DX009 (ip), vehicle: saline 100 % of control | dose: 200.0 mg/kg/injection, schedule: Q01DX009 (ip), vehicle: saline 99 % of control

CC1=C2C(=CC(C)(CO)C2O)C(O)C(C)(O)C12CC2 (centres undefined)
inactive: dose: 0.78 mg/kg/injection, schedule: Q01DX009 (ip), vehicle: water 100 % of control | dose: 1.56 mg/kg/injection, schedule: Q01DX009 (ip), vehicle: water 114 % of control | dose: 3.13 mg/kg/injection, schedule: Q01DX009 (ip), vehicle: water 105 % of control | dose: 6.25 mg/kg/injection, schedule: Q01DX009 (ip), vehicle: water 112 % of control | dose: 12.5 mg/kg/injection, schedule: Q01DX009 (ip), vehicle: water 118 % of control

COc1ccc(C2=CC(c3ccc(OC)cc3)(c3ccc(C(F)(F)F)cc3)C=C(c3ccc(OC)cc3)S2)cc1
inactive: [4] 97 % of control | dose: 100.0 mg/kg/injection, schedule: Q01DX009 (ip), vehicle: Klucel (hydroxypropylcellulose) (HPC) 93 % of control | [5] 90 % of control

ClCCCCOC1CCCCO1 (centres undefined)
inactive: dose: 60.0 mg/kg/injection, schedule: Q01DX005 (ip), vehicle: saline with Tween-80 107 % of control | dose: 120.0 mg/kg/injection, schedule: Q01DX005 (ip), vehicle: saline with Tween-80 100 % of control | dose: 240.0 mg/kg/injection, schedule: Q01DX005 (ip), vehicle: saline with Tween-80 105 % of control

CC1CCCC2C(c3ccccc3)OCN12 (centres undefined)
inactive: [6] 108 % of control | [7] 111 % of control | dose: 200.0 mg/kg/injection, schedule: Q01DX005 (ip), vehicle: saline 109 % of control

CCOC(=O)C1=C(c2ccccc2)OC(N)=C(C#N)C1c1ccccc1 (centres undefined)
inactive: dose: 50.0 mg/kg/injection, schedule: Q01DX005 (ip), vehicle: Klucel (hydroxypropylcellulose) (HPC) 107 % of control | dose: 100.0 mg/kg/injection, schedule: Q01DX005 (ip), vehicle: Klucel (hydroxypropylcellulose) (HPC) 103 % of control | dose: 200.0 mg/kg/injection, schedule: Q01DX005 (ip), vehicle: Klucel (hydroxypropylcellulose) (HPC) 101 % of control

Cc1ccc(NC(=O)Oc2cc(C)c(Cl)c(C)c2Cl)c([N+](=O)[O-])c1
inactive: [1] 114 % of control | [2] 107 % of control

NC(N)=NCCSCc1ccc2ccccc2n1
inactive: [6] 94 % of control | [7] 101 % of control

CC(CCCSC(=N)N)SC(=N)N (centres undefined)
inactive: dose: 12.5 mg/kg/injection, schedule: Q01DX009 (ip), vehicle: saline 105 % of control | dose: 25.0 mg/kg/injection, schedule: Q01DX009 (ip), vehicle: saline 98 % of control | [3] 104 % of control

Cc1cc(N2C(=O)CCSC2=S)ccc1Cl
inactive: dose: 12.5 mg/kg/injection, schedule: Q01DX009 (ip), vehicle: Klucel (hydroxypropylcellulose) (HPC) 120 % of control | dose: 25.0 mg/kg/injection, schedule: Q01DX009 (ip), vehicle: Klucel (hydroxypropylcellulose) (HPC) 119 % of control | [4] 109 % of control and 114 % of control | dose: 50.0 mg/kg/injection, schedule: Q01DX009 (ip), vehicle: suspension in saline 97 % of control | dose: 100.0 mg/kg/injection, schedule: Q01DX009 (ip), vehicle: suspension in saline 90 % of control | [5] 102 % of control | dose: 200.0 mg/kg/injection, schedule: Q01DX009 (ip), vehicle: suspension in saline 92 % of control

CC(C)(C)SC(=O)CC1(O)CCCCC1
inactive: dose: 25.0 mg/kg/injection, schedule: Q04DX002 (ip), vehicle: Klucel (hydroxypropylcellulose) (HPC) 98 % of control | dose: 50.0 mg/kg/injection, schedule: Q04DX002 (ip), vehicle: Klucel (hydroxypropylcellulose) (HPC) 100 % of control | dose: 100.0 mg/kg/injection, schedule: Q04DX002 (ip), vehicle: Klucel (hydroxypropylcellulose) (HPC) 100 % of control

c1ccc2oc(NCCSSCCNc3nc4ccccc4o3)nc2c1
inactive: dose: 12.5 mg/kg/injection, schedule: Q01DX009 (ip), vehicle: other 100 % of control | dose: 25.0 mg/kg/injection, schedule: Q01DX009 (ip), vehicle: other 92 % of control | dose: 50.0 mg/kg/injection, schedule: Q01DX009 (ip), vehicle: other 86 % of control and 93 % of control

O=C1C2=C(Nc3cc([N+](=O)[O-])ccc3N2)OC1c1ccccc1 (centres undefined)
inactive: dose: 60.0 mg/kg/injection, schedule: Q01DX005 (ip), vehicle: Klucel (hydroxypropylcellulose) (HPC) 91 % of control | dose: 120.0 mg/kg/injection, schedule: Q01DX005 (ip), vehicle: Klucel (hydroxypropylcellulose) (HPC) 91 % of control | dose: 240.0 mg/kg/injection, schedule: Q01DX005 (ip), vehicle: Klucel (hydroxypropylcellulose) (HPC) 99 % of control
